Source: paper PMC5068912 (Psychopharmacology, 2016)
Structures can show the parent of a compound that is named as a salt. Where two headings read alike, the source gives them in different places.

How the values were obtained:
mice [1] = settings: 10 mg/kg ip; ref Ramabadran 1982; cited from earlier work
DOR [2] = settings: mouse, in vivo
DOR [3] = settings: in vitro; ref Mosberg et al. 2014; cited from earlier work
C57BL/6 wild-type mice [4] = settings: for ED50, WWTW antinociception: mean ± SEM
C57BL/6 wild-type mice [5] = settings: mouse, in vivo
mice [6] = settings: mouse, in vivo; cited from earlier work
DOR [7] = settings: in vitro; ref Mosberg et al. 2014; cited from earlier work; remark: listed apart in the source
MOR knock-out mice = settings: ip, up to 32 mg/kg, n=6
MOR [8] = settings: cited from earlier work
MOR [9] = settings: in vitro; ref Mosberg et al. 2014; cited from earlier work
MOR [10] = settings: pH 7.4
C57BL/6 wild-type mice [11] = settings: mouse, in vivo; remark: listed apart in the source

## C[N+]1(CC2CC2)CC[C@]23c4c5ccc(O)c4O[C@H]2C(=O)CC[C@@]3(O)[C@H]1C5 (some centres unmarked) [MNTX, methylnaltrexone HBr]
Mice [1]
  block of opioid effects: block peripheral, but not central, effects of opioids

## Oc1ccc2c3c1O[C@H]1c4[nH]c5ccccc5c4C[C@@]4(O)[C@@H](C2)N(CC2CC2)CC[C@]314 [NTI, Naltrindole HCl, reference compound]
DOR [2]
  SNC80-induced decrease in immobility after pretreatment: blocked
  immobility in NTI pretreated mice vs vehicle treated mice: not statistically different from immobility in vehicle treated mice

## Dmt-c(SEtS)[DCys-Aic-DPen]-Ser(β-glucose)-NH2 [VRP26]
DOR [3]
  affinity for DOR: low nanomolar affinity
C57BL/6 wild-type mice [4]; 10 mg/kg MNTX ip, two way ANOVA, effect of dose F(4, 40) = 393.6, p < 0.0001
  effect of pretreatment (vehicle vs MNTX) on VRP26 antinociception: no effect of pretreatment (vehicle vs MNTX)
C57BL/6 wild-type mice [4]; VRP26 ip, pretreated with 10 mg/kg MNTX ip, n=6
  ED50, WWTW antinociception: 4.73 ± 0.13 mg/kg
C57BL/6 wild-type mice [4]; VRP26 ip, vehicle and 10 mg/kg MNTX pretreated mice, n=6
  dose-dependence of tail withdrawal latency increase: dose-dependent increases in tail withdrawal latency
C57BL/6 wild-type mice [4]; VRP26 ip, vehicle pretreated mice, n=6
  ED50, WWTW antinociception: 4.73 ± 0.22 mg/kg
C57BL/6 wild-type mice [4]; ip, both vehicle and MNTX pretreated mice
  dose producing maximal response: 10 mg/kg
C57BL/6 wild-type mice [5]
  ED50 of VRP26, day 1, saline treated group: 5.35 ± 0.17 mg/kg
  ED50 of VRP26, day 8, saline treated group: 5.07 ± 0.23 mg/kg
  shift in the dose response curve after chronic treatment: no shift in the dose response curve
Mice [6]
  acute tolerance: does not produce acute tolerance
  antinociception, WWTW: dose-dependent antinociception
Wild type littermates; 10 mg/kg ip, t(10) = 9.161, p < 0.0001
  tail withdrawal latency, wild type vs MOR knock-out littermates: significantly increased withdrawal latency in wild type mice as compared with MOR knock-out littermates
Wild type littermates; ip, wild type littermates
  dose producing maximal antinociceptive effect: 10 mg/kg
Wild type littermates; ip, wild type littermates of MOR knock-out mice, mean ± SEM, n=6
  ED50, WWTW antinociception: 4.77 ± 0.32 mg/kg
DOR [7]
  antagonism at DOR: antagonism at DOR
DOR [2]
  SNC80-induced decrease in immobility after pretreatment: partially blocked SNC80-induced decreases in immobility
DOR [2]; sc, 10 mg/kg
  immobility, compound alone vs control: no effect on immobility as compared with control
MOR knock-out mice
  increase in tail withdrawal latency: failed to produce a significant increase in tail withdrawal latency up to 32 mg/kg
MOR [8]; discussion statement, source not given there
  affinity balance between MOR and DOR: balanced affinity between MOR and DOR
MOR [8]; in vitro, ref Mosberg et al. 2014
  affinity for MOR: low nanomolar affinity
MOR [9]
  agonist activity at MOR: agonist activity at MOR similar to morphine
MOR [10]
  relative efficacy at MOR: 0.28
C57BL/6 wild-type mice [11]
  dose producing maximal antinociceptive effect: 10 mg/kg
  lowest, maximally-effective, acute dose in the WWTW assay: 10 mg/kg
C57BL/6 wild-type mice [11]; ip
  ED50, WWTW antinociception: 5.44 ± 0.10 mg/kg
C57BL/6 wild-type mice [11]; sc
  ED50, WWTW antinociception: 5.08 ± 0.23 mg/kg
